In US11725011B2, “Bicyclic urea kinase inhibitors and uses thereof” (The Broad Institute, Inc., priority 2016, dated 2023):

How the values were obtained:
Conditions in all cases: 1 uM
[1] = target: ABL1 (H396P)-phosphorylated (Homo sapiens (Human), UniProt P00519, H396P); experiment: KINOMEscan; assay type: binding
[2] = target: ABL1 (M351T)-phosphorylated (Homo sapiens (Human), UniProt P00519, M351T); experiment: KINOMEscan; assay type: binding
[3] = target: ABL1 (Q252H)-nonphosphorylated (Homo sapiens (Human), UniProt P00519, Q252H); experiment: KINOMEscan; assay type: binding
[4] = target: ABL1 (T315I)-nonphosphorylated (Homo sapiens (Human), UniProt P00519, T315I); experiment: KINOMEscan; assay type: binding
ACVR1 = ACVR1 (Homo sapiens (Human), UniProt Q04771); experiment: KINOMEscan; assay type: binding
AKT3 = AKT3 (Homo sapiens (Human), UniProt Q9Y243); experiment: KINOMEscan; assay type: binding
BRAF = BRAF (Homo sapiens (Human), UniProt P15056); experiment: KINOMEscan; assay type: binding
BRAF (V600E) = BRAF (V600E) (Homo sapiens (Human), UniProt P15056, V600E); experiment: KINOMEscan; assay type: binding
CAMK1D = CAMK1D (Homo sapiens (Human), UniProt Q8IU85); experiment: KINOMEscan; assay type: binding
CAMKK2 = CAMKK2 (Homo sapiens (Human), UniProt Q96RR4); experiment: KINOMEscan; assay type: binding
CDK7 = CDK7 (Homo sapiens (Human), UniProt P50613); experiment: KINOMEscan; assay type: binding
CDK9 = CDK9 (Homo sapiens (Human), UniProt P50750); experiment: KINOMEscan; assay type: binding
CSNK1G2 = CSNK1G2 (Homo sapiens (Human), UniProt P78368); experiment: KINOMEscan; assay type: binding
EGFR (L858R) = EGFR (L858R) (Homo sapiens (Human), UniProt P00533, L858R); experiment: KINOMEscan; assay type: binding
EIF2AK1 = EIF2AK1 (Homo sapiens (Human), UniProt Q9BQI3); experiment: KINOMEscan; assay type: binding
EPHB1 = EPHB1 (Homo sapiens (Human), UniProt P54762); experiment: KINOMEscan; assay type: binding
ERK1 = ERK1 (Homo sapiens (Human), UniProt P27361); experiment: KINOMEscan; assay type: binding
ERK8 = ERK8 (Homo sapiens (Human), UniProt Q8TD08); experiment: KINOMEscan; assay type: binding
FGFR4 = FGFR4 (Homo sapiens (Human), UniProt P22455); experiment: KINOMEscan; assay type: binding
FLT3 (ITD) = experiment: KINOMEscan; assay type: binding
LTK = LTK (Homo sapiens (Human), UniProt P29376); experiment: KINOMEscan; assay type: binding
MARK1 = MARK1 (Homo sapiens (Human), UniProt Q9P0L2); experiment: KINOMEscan; assay type: binding
MLK2 = MLK2 (Homo sapiens (Human), UniProt Q02779); experiment: KINOMEscan; assay type: binding
PAK7 = PAK7 (Homo sapiens (Human), UniProt Q9P286); experiment: KINOMEscan; assay type: binding
PCTK3 = PCTK3 (Homo sapiens (Human), UniProt Q07002); experiment: KINOMEscan; assay type: binding
PFCDPK1 (P. falciparum) = PFCDPK1 (P. falciparum) (Plasmodium falciparum (isolate 3D7), UniProt P62344); experiment: KINOMEscan; assay type: binding
PHKG1 = PHKG1 (Homo sapiens (Human), UniProt Q16816); experiment: KINOMEscan; assay type: binding
PIK3CA (E542K) = PIK3CA (E542K) (Homo sapiens (Human), UniProt P42336, E542K); experiment: KINOMEscan; assay type: binding
PIK3CA (H1047Y) = PIK3CA (H1047Y) (Homo sapiens (Human), UniProt P42336, H1047Y); experiment: KINOMEscan; assay type: binding
PIK3CA (I800L) = PIK3CA (I800L) (Homo sapiens (Human), UniProt P42336, I800L); experiment: KINOMEscan; assay type: binding
PIK3CA (M1043I) = PIK3CA (M1043I) (Homo sapiens (Human), UniProt P42336, M1043I); experiment: KINOMEscan; assay type: binding
PIM3 = PIM3 (Homo sapiens (Human), UniProt Q86V86); experiment: KINOMEscan; assay type: binding
PIP5K2B = PIP5K2B (Homo sapiens (Human), UniProt P78356); experiment: KINOMEscan; assay type: binding
PKN1 = PKN1 (Homo sapiens (Human), UniProt Q16512); experiment: KINOMEscan; assay type: binding
ROCK2 = ROCK2 (Homo sapiens (Human), UniProt O75116); experiment: KINOMEscan; assay type: binding
[5] = target: RPS6KA4 (Kin.Dom.2-C-terminal) (Homo sapiens (Human), UniProt O75676); experiment: KINOMEscan; assay type: binding
[6] = target: RPS6KA5 (Kin.Dom.2-C-terminal) (Homo sapiens (Human), UniProt O75582); experiment: KINOMEscan; assay type: binding
STK16 = STK16 (Homo sapiens (Human), UniProt O75716); experiment: KINOMEscan; assay type: binding
CDC2L5 = CDC2L5 (Homo sapiens (Human), UniProt Q14004)

Chain of EIF2AK1 (Q9BQI3 whole entry): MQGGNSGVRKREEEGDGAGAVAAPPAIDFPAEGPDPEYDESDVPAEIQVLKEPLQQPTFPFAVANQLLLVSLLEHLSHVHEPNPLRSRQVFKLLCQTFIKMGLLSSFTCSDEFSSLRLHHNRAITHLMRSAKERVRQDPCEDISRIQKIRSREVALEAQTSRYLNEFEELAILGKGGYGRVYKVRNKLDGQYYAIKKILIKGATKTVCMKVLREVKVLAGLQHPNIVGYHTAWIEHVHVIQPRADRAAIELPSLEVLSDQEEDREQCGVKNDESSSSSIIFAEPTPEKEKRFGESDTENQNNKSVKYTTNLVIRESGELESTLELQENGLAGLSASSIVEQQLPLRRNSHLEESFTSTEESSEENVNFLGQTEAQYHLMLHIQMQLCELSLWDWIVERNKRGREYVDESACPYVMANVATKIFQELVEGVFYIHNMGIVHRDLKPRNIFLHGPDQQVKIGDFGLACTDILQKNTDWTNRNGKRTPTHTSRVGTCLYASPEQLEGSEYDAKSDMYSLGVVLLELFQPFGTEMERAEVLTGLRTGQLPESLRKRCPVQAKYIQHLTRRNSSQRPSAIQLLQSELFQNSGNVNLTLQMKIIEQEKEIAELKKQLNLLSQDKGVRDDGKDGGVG
Chain of CDK9 (P50750 whole entry): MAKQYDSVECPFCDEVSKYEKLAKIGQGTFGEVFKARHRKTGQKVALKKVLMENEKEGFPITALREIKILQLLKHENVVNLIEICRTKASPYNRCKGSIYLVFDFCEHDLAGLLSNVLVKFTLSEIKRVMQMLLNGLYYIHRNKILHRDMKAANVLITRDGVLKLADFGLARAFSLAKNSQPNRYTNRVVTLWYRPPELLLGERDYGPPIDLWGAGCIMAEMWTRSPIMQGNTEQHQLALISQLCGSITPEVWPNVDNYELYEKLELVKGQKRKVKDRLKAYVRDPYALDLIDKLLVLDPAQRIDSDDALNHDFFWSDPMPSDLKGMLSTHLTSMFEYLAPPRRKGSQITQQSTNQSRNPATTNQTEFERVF
Chain of MARK1 (Q9P0L2 whole entry): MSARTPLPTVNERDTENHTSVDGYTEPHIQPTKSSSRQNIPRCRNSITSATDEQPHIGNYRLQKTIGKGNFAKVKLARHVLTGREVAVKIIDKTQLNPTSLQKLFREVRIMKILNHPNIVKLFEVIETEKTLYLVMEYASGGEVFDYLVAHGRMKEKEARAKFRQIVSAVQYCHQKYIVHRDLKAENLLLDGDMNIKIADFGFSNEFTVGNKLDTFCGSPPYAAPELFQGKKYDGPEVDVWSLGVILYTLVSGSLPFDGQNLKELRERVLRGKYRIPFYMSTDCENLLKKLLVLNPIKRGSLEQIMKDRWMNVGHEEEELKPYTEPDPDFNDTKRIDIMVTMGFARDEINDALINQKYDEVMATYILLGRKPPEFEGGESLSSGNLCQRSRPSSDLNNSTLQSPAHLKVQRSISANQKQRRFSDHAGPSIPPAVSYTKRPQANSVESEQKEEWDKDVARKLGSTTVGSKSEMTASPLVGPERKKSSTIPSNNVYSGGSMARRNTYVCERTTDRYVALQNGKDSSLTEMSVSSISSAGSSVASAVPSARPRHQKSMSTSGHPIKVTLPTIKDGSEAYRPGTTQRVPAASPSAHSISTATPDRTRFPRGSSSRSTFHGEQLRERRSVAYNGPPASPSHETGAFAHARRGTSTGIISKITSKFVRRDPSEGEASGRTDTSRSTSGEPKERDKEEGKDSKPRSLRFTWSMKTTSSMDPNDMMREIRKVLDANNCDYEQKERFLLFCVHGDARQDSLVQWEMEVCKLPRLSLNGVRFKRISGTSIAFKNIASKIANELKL
Chain of PIP5K2B (P78356 whole entry): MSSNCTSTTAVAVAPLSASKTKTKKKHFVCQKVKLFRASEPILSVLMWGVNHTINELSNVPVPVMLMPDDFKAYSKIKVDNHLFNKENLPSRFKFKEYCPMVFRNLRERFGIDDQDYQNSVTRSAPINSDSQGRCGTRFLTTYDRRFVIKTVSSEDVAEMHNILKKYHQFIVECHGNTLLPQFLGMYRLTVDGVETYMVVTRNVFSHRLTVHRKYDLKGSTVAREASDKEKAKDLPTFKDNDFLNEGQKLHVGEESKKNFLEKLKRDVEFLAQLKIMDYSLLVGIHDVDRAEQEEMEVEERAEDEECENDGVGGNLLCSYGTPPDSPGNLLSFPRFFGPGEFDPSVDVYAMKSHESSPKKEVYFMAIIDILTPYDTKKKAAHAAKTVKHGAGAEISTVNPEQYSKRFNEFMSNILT
Chain of MLK2 (Q02779 whole entry): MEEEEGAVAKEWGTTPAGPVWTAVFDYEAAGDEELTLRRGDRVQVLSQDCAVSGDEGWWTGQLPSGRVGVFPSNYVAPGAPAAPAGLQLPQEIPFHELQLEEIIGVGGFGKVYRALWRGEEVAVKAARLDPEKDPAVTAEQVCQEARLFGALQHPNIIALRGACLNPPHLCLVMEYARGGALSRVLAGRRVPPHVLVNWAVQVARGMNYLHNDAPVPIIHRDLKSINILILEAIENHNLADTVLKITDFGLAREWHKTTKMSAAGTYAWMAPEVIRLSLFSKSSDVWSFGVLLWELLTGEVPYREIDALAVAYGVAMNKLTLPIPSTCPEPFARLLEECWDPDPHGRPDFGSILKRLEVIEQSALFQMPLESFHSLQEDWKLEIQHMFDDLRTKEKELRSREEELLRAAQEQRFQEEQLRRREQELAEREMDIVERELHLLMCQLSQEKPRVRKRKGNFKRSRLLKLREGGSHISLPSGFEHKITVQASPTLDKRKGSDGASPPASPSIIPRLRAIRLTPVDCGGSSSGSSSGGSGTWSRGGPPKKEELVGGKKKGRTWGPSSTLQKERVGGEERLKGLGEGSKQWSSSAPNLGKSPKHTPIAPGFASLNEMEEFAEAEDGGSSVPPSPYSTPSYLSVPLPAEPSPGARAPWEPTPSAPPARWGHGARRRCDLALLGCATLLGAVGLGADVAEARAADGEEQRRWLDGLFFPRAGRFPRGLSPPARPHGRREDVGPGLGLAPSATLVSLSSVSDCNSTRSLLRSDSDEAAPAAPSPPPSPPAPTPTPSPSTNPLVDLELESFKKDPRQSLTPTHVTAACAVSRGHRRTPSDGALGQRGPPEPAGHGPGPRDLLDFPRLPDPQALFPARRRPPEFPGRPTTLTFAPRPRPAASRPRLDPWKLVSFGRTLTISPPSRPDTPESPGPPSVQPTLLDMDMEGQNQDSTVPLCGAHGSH
Chain of BRAF (V600E) (P15056 whole entry V600E): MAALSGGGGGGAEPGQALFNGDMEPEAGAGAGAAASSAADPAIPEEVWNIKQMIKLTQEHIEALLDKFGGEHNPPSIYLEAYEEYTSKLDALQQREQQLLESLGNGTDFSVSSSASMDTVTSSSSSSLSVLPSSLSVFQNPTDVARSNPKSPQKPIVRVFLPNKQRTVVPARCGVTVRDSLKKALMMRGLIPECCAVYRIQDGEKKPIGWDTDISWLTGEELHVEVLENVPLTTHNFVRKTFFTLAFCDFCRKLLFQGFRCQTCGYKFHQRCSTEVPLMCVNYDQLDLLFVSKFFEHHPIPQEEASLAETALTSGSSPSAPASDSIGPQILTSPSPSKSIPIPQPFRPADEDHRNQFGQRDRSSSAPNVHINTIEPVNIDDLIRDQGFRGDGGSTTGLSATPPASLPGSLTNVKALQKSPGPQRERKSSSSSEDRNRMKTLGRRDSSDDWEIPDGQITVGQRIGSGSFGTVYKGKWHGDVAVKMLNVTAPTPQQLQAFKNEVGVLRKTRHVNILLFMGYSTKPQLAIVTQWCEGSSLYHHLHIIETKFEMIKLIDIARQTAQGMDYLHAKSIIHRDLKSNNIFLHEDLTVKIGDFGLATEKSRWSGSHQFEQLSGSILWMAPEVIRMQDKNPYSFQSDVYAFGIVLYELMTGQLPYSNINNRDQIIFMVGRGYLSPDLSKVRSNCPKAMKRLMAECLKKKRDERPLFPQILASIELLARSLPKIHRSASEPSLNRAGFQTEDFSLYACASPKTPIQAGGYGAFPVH
Chain of PIK3CA (E542K) (P42336 whole entry E542K): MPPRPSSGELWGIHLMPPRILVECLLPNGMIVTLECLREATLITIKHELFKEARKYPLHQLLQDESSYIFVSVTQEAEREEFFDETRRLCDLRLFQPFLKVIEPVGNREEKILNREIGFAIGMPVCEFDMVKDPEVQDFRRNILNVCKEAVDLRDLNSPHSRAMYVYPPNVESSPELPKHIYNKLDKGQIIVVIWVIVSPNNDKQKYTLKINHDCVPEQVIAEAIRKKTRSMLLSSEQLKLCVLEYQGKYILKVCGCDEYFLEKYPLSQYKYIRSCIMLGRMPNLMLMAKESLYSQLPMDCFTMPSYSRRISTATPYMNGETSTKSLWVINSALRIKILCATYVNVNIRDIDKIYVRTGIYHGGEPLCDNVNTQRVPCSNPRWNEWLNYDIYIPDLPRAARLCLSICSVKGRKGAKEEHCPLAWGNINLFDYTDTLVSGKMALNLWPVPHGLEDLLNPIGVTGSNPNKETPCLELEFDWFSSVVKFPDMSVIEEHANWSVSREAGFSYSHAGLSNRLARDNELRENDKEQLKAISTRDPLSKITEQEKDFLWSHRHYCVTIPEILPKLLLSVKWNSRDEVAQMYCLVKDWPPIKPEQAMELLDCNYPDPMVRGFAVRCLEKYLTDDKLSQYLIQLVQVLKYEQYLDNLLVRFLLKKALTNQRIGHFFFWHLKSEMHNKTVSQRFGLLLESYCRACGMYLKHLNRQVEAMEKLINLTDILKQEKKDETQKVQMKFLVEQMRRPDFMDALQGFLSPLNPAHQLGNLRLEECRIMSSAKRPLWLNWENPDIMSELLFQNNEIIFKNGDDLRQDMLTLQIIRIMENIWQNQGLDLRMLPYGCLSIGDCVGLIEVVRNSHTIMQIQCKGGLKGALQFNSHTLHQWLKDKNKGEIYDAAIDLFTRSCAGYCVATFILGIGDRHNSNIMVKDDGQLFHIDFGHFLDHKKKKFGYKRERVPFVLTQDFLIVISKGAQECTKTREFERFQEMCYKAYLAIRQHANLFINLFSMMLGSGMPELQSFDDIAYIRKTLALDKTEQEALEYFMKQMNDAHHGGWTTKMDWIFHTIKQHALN
Chain of BRAF (P15056 whole entry): as the sequence (P15056 whole entry V600E) above, with E600V counted along it

## COc1ccc(N2C(=O)N(c3c(C)cccc3C)Cc3cnc(Nc4ccc(N5CCN(C)CC5)cc4)nc32)c(OC)c1 [HG-11-136-01]
[1]
  KINOMEscan ABL1 (H396P)-phosphorylated: 0
[2]
  KINOMEscan ABL1 (M351T)-phosphorylated: 0.55
[3]
  KINOMEscan ABL1 (Q252H)-nonphosphorylated: 0
[4]
  KINOMEscan ABL1 (T315I)-nonphosphorylated: 0
ACVR1
  KINOMEscan ACVR1: 2.8
AKT3
  KINOMEscan AKT3: 100
BRAF
  KINOMEscan BRAF: 26
BRAF (V600E)
  KINOMEscan BRAF (V600E): 13
CAMK1D
  KINOMEscan CAMK1D: 68
CAMKK2
  KINOMEscan CAMKK2: 100
CDK7
  KINOMEscan CDK7: 60
CDK9
  KINOMEscan CDK9: 91
CSNK1G2
  KINOMEscan CSNK1G2: 100
EGFR (L858R)
  KINOMEscan EGFR (L858R): 0.1
EIF2AK1
  KINOMEscan EIF2AK1: 93
EPHB1
  KINOMEscan EPHB1: 0.3
ERK1
  KINOMEscan ERK1: 100
ERK8
  KINOMEscan ERK8: 88
FGFR4
  KINOMEscan FGFR4: 2
FLT3 (ITD)
  KINOMEscan FLT3 (ITD): 57
LTK
  KINOMEscan LTK: 18
MARK1
  KINOMEscan MARK1: 5.1
MLK2
  KINOMEscan MLK2: 11
PAK7
  KINOMEscan PAK7: 1.3
PCTK3
  KINOMEscan PCTK3: 100
PFCDPK1 (P. falciparum)
  KINOMEscan PFCDPK1 (P. falciparum): 0.1
PHKG1
  KINOMEscan PHKG1: 100
PIK3CA (E542K)
  KINOMEscan PIK3CA (E542K): 88
PIK3CA (H1047Y)
  KINOMEscan PIK3CA (H1047Y): 63
PIK3CA (I800L)
  KINOMEscan PIK3CA (I800L): 94
PIK3CA (M1043I)
  KINOMEscan PIK3CA (M1043I): 64
PIM3
  KINOMEscan PIM3: 90
PIP5K2B
  KINOMEscan PIP5K2B: 27
PKN1
  KINOMEscan PKN1: 95
ROCK2
  KINOMEscan ROCK2: 89
[5]
  KINOMEscan RPS6KA4 (Kin.Dom.2-C-terminal): 90
[6]
  KINOMEscan RPS6KA5 (Kin.Dom.2-C-terminal): 80
STK16
  KINOMEscan STK16: 5.6
CDC2L5
  KINOMEscan CDC2L5: 65
